# Experimental data reported in patent publication US20120245107A1, “METHODS OF REDUCING THE PROLIFERATION AND VIABLILITY OF MICROBIAL AGENTS” (Targeted Delivery Technologies Limited, priority 2009, published 2012).
# Counter-ions that a name gives are not always drawn. Like-named read-outs stand apart in the source and are kept apart here.
# How the values were obtained:
# Type in all cases: cell-based
# [1] = tested on: Trichophyton rubrum MYA4498; assay: Morphological effects of antifungal preparations on dermatophyte hyphae in vitro (calcofluor white microscopy); conditions: T. rubrum hyphae; for Week 1 Change in morphology If yes, description of change: hydrochloride
# Procedure: The morphological changes to dermatophyte hyphae following exposure to an antifungal formulation of the invention, specifically a terbinafine formulation, compared to terbinafine hydrochloride solution in vitro were evaluated.
# Trichophyton rubrum MYA4498, one of the quality control isolates approved by the Clinical and Laboratory Standards Institute (CLSI) for dermatophyte susceptibility testing, was used as a test isolate throughout testing, (See, Ghannoum et al., 2004, J Clin Microbiol. 42(7): 2977-2979; Ghannoum et al., J Clin Microbiol. 44: 353-4350. Inoculum containing 3×10^3 conidia/ml of T. rubrum was prepared in RPMI-1640 buffered with MOPS (Hardy Diagnostics, Santa Maria. CA), added to the wells of microtiter plates (100 ul aliquots) and incubated at 35° C. for 2-3 days until good hyphal growth was achieved. Specific concentrations of 1 mg/ml, 3 mg/ml, and 15 mg/ml of terbinafine alone were prepared in RPMI-1640. The terbinafine hydrochloride (1 mg/ml. 3 mg/ml, and 15 mg/ml) and 15 mg/ml of a terbinafine formulation of the invention was added to the wells of the microtiter plates (100 ul aliquots) and re-incubated. Twenty plates for each drug were set up to ensure adequate sample for examination over several weeks; RPMI was added as needed to maintain the volume of each well at 200 ul.
# At pre-determined intervals (24, 48, 72, and 96 hours and once weekly thereafter for a total of 12 weeks), a loopful of hyphal growth from the bottom of each well was removed to a glass microscope slide containing a drop of calcofluor white stain (fluorescent KOH) and covered with a cover slip. Slides were examined microscopically under both white light and UV light. Images from a representative field visualized under each light source were be recorded.
# Samples showing significant differences in morphology between exposure of a terbinafine formulation vs. terbinafine alone were further examined under Scanning Electron Microscopy (SEM). Preparation of samples for SEM were performed following previously established methodology (see. Chandra et al., 2001. J. Dent. Res. 80:903-908).
# [2] = tested on: Aspergillus flavus; assay: Minimum inhibitory concentration (MIC100), CLSI M38-A2 broth dilution
# Procedure: (§1) Antifungal activity of the antifungal formulations of the invention against dermatophytes, as compared to terbinafine hydrochloride alone, is determined in various dermatophytes known to cause onychomycosis, including Trichophyton rubrum, T. mentagrophytes, and Epidermophyton floccosum. Antifungal activity of the antifungal formulations of the invention as compared to terbinafine hydrochloride alone, was determined in various pathogenic fungi, including Aspergillus flavus and Aspergillus fumigatus. Antifungal activity of the antifungal formulations of the invention was measured by the minimum inhibitory concentration (MIC). Antifungal activity can also be measured by minimum fungicidal concentration (MFC).
# (§2) Several strains of Aspergillus flavus, Aspergillus fumigatus, and Candida albicans were tested. Trichophyton rubrum MYA4498 and T. mentagrophytes MYA4439, the QC isolates approved by the Clinical and Laboratory Standards Institute (CLSI) for dermatophyte susceptibility testing, can also be tested.
# (§3) MIC testing was performed according to the CLSI M38A2 standard for the susceptibility testing of dermatophytes developed at the Center for Medical Mycology (See, Ghannoum et al., 2004, J Clin Microbial. 42(7): 2977-2979 CLSI, Reference Method for Broth Dilution Antifungal Susceptibility Testing of Filamentous Fungi: Approved Standard-Second Edition. CLSI document M38-A2 [ISBN 1-56238-668-9]. CLSI, 940 West Valley Road, Suite 1400, Wayne, Pa. 19087-1898 USA, 2008). Briefly, RPMI was the test medium, incubation temperature and time was 35° C. and 24 hours or 48 hours, respectively, and the inoculum size was 1-3×10^3 conidia/ml. The MIC endpoint was 100% inhibition as compared to the growth control.
# (§4) The MIC range, MIC100 (defined as the minimum concentration required to inhibit 100% of the isolates tested), for the antifungal preparations of the invention and comparators was computed. The MFC range, MFC50, MFC90, and MFC100 for the antifungal preparations of the invention and comparators can also be computed.
# (§5) In this example, the terbinafine formulation of the invention comprises terbinafine formulated with a phospholipid and a surfactant.
# [3] = tested on: Aspergillus fumigatus; assay: as above
# Procedure: as §1, §2, §3, §4, §5
# [4] = tested on: Trichophyton rubrum MYA4498; assay: Morphological effects of antifungal preparations on dermatophyte hyphae in vitro (calcofluor white microscopy); conditions: T. rubrum hyphae; for Week 1 Change in morphology If yes, description of change: hydrochloride; remark: listed apart in the source
smiles,measurement,setting,value
"CN(C/C=C/C#CC(C)(C)C)Cc1cccc2ccccc12 [Terbinafine hydrochloride, terbinafine hydrochloride]",morphological changes observed,"[1]; 3 mg/mL, 24, 48, 72 and 96 hours",no morphological changes
same,"Week 1 Change in morphology If yes, description of change",[1]; 3 mg/mL,no presence of vacuoles within the hyphae
same,"Week 1 Change in morphology If yes, description of change","[1]; 3 mg/mL, listed as Tcrbinafine",no
same,"Week 2 Change in morphology If yes, description of change",[1]; 3 mg/mL,Yes: hyphae under
same,"24 hour Change in morphology If yes, description of change","[1]; 15 mg/mL, 24 hour",no
same,"48 hour Change in morphology If yes, description of change","[1]; 15 mg/mL, 48 hour",no
same,"72 hour Change in morphology If yes, description of change","[1]; 15 mg/mL, 72 hour",no
same,"96 hour Change in morphology If yes, description of change","[1]; 15 mg/mL, 96 hour",no
same,"Week 1 Change in morphology If yes, description of change","[1]; 15 mg/mL, listed as Terbinafine",no
same,"Week 1 Change in morphology If yes, description of change","[1]; 15 mg/mL, listed as terbinafine",no presence of vacuoles within the hyphae
same,"Week 2 Change in morphology If yes, description of change",[1]; 15 mg/mL,no
same,MIC,"[2]; 24 h, A. flavus strain MRL No. 17840, 24 hours, read-out: MIC100 (μg/mL) in 24 hours",0.002 µg/mL
same,MIC,"[2]; 24 h, A. flavus strain MRL No. 17842, 24 hours, read-out: MIC100 (μg/mL) in 24 hours",0.002 µg/mL
same,MIC,"[2]; 24 h, A. flavus strain MRL No. 18736, 24 hours, read-out: MIC100 (μg/mL) in 24 hours",6e-05 µg/mL
same,MIC,"[2]; 24 h, A. flavus strain MRL No. 18743, 24 hours, read-out: MIC100 (μg/mL) in 24 hours",0.008 µg/mL
same,MIC,"[2]; 24 h, A. flavus strain MRL No. 18744, 24 hours, read-out: MIC100 (μg/mL) in 24 hours",0.008 µg/mL
same,MIC,"[2]; 48 h, A. flavus strain MRL No. 17840, 48 hours, read-out: MIC100 (μg/mL) in 48 hours",0.004 µg/mL
same,MIC,"[2]; 48 h, A. flavus strain MRL No. 17842, 48 hours, read-out: MIC100 (μg/mL) in 48 hours",0.002 µg/mL
same,MIC,"[2]; 48 h, A. flavus strain MRL No. 18736, 48 hours, read-out: MIC100 (μg/mL) in 48 hours",0.002 µg/mL
same,MIC,"[2]; 48 h, A. flavus strain MRL No. 18743, 48 hours, read-out: MIC100 (μg/mL) in 48 hours",0.015 µg/mL
same,MIC,"[2]; 48 h, A. flavus strain MRL No. 18744, 48 hours, read-out: MIC100 (μg/mL) in 48 hours",0.002 µg/mL
same,MIC,"[3]; 24 h, A. fumigatus strain MRL No. 2456, 24 hours, read-out: MIC100 (μg/mL) in 24 hours",0.25 µg/mL
same,MIC,"[3]; 24 h, A. fumigatus strain MRL No. 2471, 24 hours, read-out: MIC100 (μg/mL) in 24 hours",0.25 µg/mL
same,MIC,"[3]; 24 h, A. fumigatus strain MRL No. 2574, 24 hours, read-out: MIC100 (μg/mL) in 24 hours",0.5 µg/mL
same,MIC,"[3]; 24 h, A. fumigatus strain MRL No. 16621, 24 hours, read-out: MIC100 (μg/mL) in 24 hours",0.5 µg/mL
same,MIC,"[3]; 24 h, A. fumigatus strain MRL No. 16629, 24 hours, read-out: MIC100 (μg/mL) in 24 hours",0.5 µg/mL
same,MIC,"[3]; 48 h, A. fumigatus strain MRL No. 2456, 48 hours, read-out: MIC100 (μg/mL) in 48 hours",234 µg/mL
same,MIC,"[3]; 48 h, A. fumigatus strain MRL No. 2471, 48 hours, read-out: MIC100 (μg/mL) in 48 hours",234 µg/mL
same,MIC,"[3]; 48 h, A. fumigatus strain MRL No. 2574, 48 hours, read-out: MIC100 (μg/mL) in 48 hours",234 µg/mL
same,MIC,"[3]; 48 h, A. fumigatus strain MRL No. 16627, 48 hours, read-out: MIC100 (μg/mL) in 48 hours",234 µg/mL
same,MIC,"[3]; 48 h, A. fumigatus strain MRL No. 16629, 48 hours, read-out: MIC100 (μg/mL) in 48 hours",234 µg/mL
same,morphological changes observed,"[4]; 1 μg/mL, 24, 48, 72 and 96 hours",no morphological changes
same,"24 hour Change in morphology If yes, description of change",[4]; 1 μg/mL,no
same,"48 hour Change in morphology If yes, description of change",[4]; 1 μg/mL,no
same,"72 hour Change in morphology If yes, description of change",[4]; 1 μg/mL,no
same,"96 hour Change in morphology If yes, description of change",[4]; 1 μg/mL,no
same,"Week 1 Change in morphology If yes, description of change","[4]; 1 μg/mL, listed as Terbinafine",Yes: hyphae under
same,"Week 1 Change in morphology If yes, description of change","[4]; 1 μg/mL, listed as terbinafine",had vacuoles within the hyphae
same,"Week 2 Change in morphology If yes, description of change","[4]; 1 μg/mL, Week 2",Yes: hyphae under
same,"24 hour Change in morphology If yes, description of change",[4]; 3 mg/mL,no
same,"48 hour Change in morphology If yes, description of change",[4]; 3 mg/mL,no
same,"72 hour Change in morphology If yes, description of change",[4]; 3 mg/mL,no
same,"96 hour Change in morphology If yes, description of change",[4]; 3 mg/mL,no
